{
  "source": "patent US8703744B2",
  "about": "“Cholesterol level lowering liposomes” (priority 2009, dated 2014)",
  "tested_on": "Huh7.5 cells",
  "test": "Uptake of rh-PE-labeled 22:6 ER liposomes into Huh7.5 cells in the presence of drugs that up- and down-regulate LDLr expression",
  "type": "cell-based, human",
  "settings": "10 μM, 24 h pre-treatment, then 50 μM rhodamine-labeled 22:6 ER liposomes for 24 h",
  "description": "Liposomes were prepared as described in US patent publication no. 20090252785 and included 1% (total moles) of rh-PE for monitoring their uptake in cells. JC-1-infected (MOI=0.5) or uninfected Huh7.5 cells were seeded in 6 well plates at a density of 3×10^5 cell/well in 2 ml of complete DMEM/10% FCS medium. Cells were either pre-treated or not with 1 μM and 10 μM squalestatin (SQ, Sigma) or 25-hydroxycholesterol (25-HC, Sigma) for 24 h in serum-free complete DMEM. Following the 24 h pre-incubation, rh-labeled liposomes were added to a final lipid concentration of 50 μM, and left to incubate for a further 24 h. Following incubation times, cells were washed twice in 1×PBS, detached, counted, and resuspended in 200 μl 1×PBS/1% Triton® X-100 before being transferred to a 96 well plate to read in a spectrofluorometer at λex=550 nm, Xem=590 nm.\n22:6 ER liposomes (final lipid concentration of 50 μM), labeled with 1% rh-PE in the lipid bilayer, were then added to cells and left to incubate a further 24 h. Cells were then harvested, counted, and rh-PE fluorescence was measured at λex=550 nm, Xem=590 nm. All data represent the mean and SD of triplicates from three independent experiments. Data are presented in relation to the untreated control (100%), and significant differences from this value are denoted with * (P<0.05) or ** (P<0.001).",
  "data": [
    {"smiles": "C[C@H](CCCC(C)(C)O)[C@H]1CC[C@H]2[C@@H]3CC=C4C[C@@H](O)CC[C@]4(C)[C@H]3CC[C@]12C", "note": "[25-HC, 25-hydroxycholesterol]", "values": [
      {"measurement": "decrease in liposome uptake", "value": 69, "unit": "%"}
    ]},
    {"smiles": "C=C(CC[C@]12O[C@H](C(=O)O)[C@@](O)(C(=O)O)[C@](C(=O)O)(O1)[C@H](OC(=O)/C=C/[C@@H](C)C[C@@H](C)CC)[C@H]2O)[C@@H](OC(C)=O)[C@H](C)Cc1ccccc1", "note": "[SQ, squalestatin]", "values": [
      {"measurement": "liposome uptake, in relation to the untreated control (100%)", "value": 117, "unit": "%"}
    ]}
  ]
}
